Assays:
corn [1] = assay: Test A preemergence; assay type: in vivo, Zea mays; conditions: preemergence; for Corn plant response rating (0 to 100 scale): 125 g ai/ha, visual injury approx. 10 days after treatment; for Corn plant response rating: 500 g ai/ha, visual injury after approx. 10 days, 0 to 100 scale (0 no effect, 100 complete control)
Method in brief: (§1)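 Visual injury ratings, 0 = no effect to 100 = complete control, taken about 10 days after treatment against untreated controls. Test chemicals, in a non-phytotoxic surfactant-containing solvent, were sprayed onto soil preemergence or onto one- to two-leaf plants (2–10 cm) postemergence, in loam–sand soil under greenhouse conditions.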

rice = assay: Test B flood; assay type: in vivo, Oryza sativa; conditions: 250 g ai/ha, visual rating on 0 to 100 scale (0 no effect, 100 complete control), 13 to 15 days
Method in brief: (§2)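 Flooded-pot test: compound dosed into 3 cm of standing water above soil when plants had two leaves. Visual control ratings (0–100) versus untreated plants after 13–15 d.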

morningglory = assay: Test A preemergence; assay type: in vivo, Ipomoea spp.; conditions: preemergence; for Morningglory plant response rating (0 to 100 scale): 125 g ai/ha, visual injury approx. 10 days after treatment; for Morningglory plant response rating: 500 g ai/ha, visual injury after approx. 10 days, 0 to 100 scale (0 no effect, 100 complete control)
Method in brief: as §1

corn [2] = assay: Test C preemergence; assay type: in vivo, Zea mays
Source text: Seeds of plant species selected from blackgrass (Alopecurus myosuroides), ryegrass, Italian (Italian ryegrass, Lolium multiflorum), wheat (winter wheat, Triticum aestivum), galium (catchweed bedstraw, Galium aparine), corn (Zea mays), crabgrass, large (large crabgrass, Digitaria sanguinalis), foxtail, giant (giant foxtail, Setaria faberii), johnsongrass (Sorghum halepense), lambsquarters (Chenopodium album), morningglory (Ipomoea coccinea), nutsedge, yellow (yellow nutsedge, Cyperus esculentus), pigweed (redroot pigweed, Amaranthus retroflexus), ragweed (common ragweed, Ambrosia elation), soybean (Glycine max), barnyardgrass (Echinochloa crus-galli), oilseed rape (Brassica napus), waterhemp (common waterhemp, Amaranthus rudis), oat, wild (wild oat, Avena fatua), kochia (Kochia scoparia), Surinam grass (Brachiaria decumbens), foxtail, green (green foxtail, Setaria viridis), goosegrass (Eleusine indica), bromegrass, downy (downy bromegrass, Bromus tectorum), nightshade (eastern black nightshade, Solanum ptycanthum), cocklebur (common cocklebur, Xanthium strumarium), cupgrass, woolly (woolly cupgrass, Eriochloa villosa), bermudagrass (Cynodon dactylon), sunflower, (common oilseed sunflower, Helianthus annuus), Russian thistle (Salsola kali), and velvetleaf (Abutilon theophrasti) were planted into a blend of loam soil and sand and treated preemergence with test chemicals formulated in a non-phytotoxic solvent mixture which included a surfactant.
At the same time, plants selected from these crop and weed species and also chickweed (common chickweed, Stellaria media), canarygrass (littleseed canarygrass, Phalaris minor), and deadnettle (henbit deadnettle, Lamium amplexicaule), were planted in pots containing Redi-Earth® planting medium (Scotts Company, 14111 Scottslawn Road, Marysville, Ohio 43041) comprising spaghnum peat moss, vermiculite, wetting agent and starter nutrients and treated with postemergence applications of test chemicals formulated in the same manner. Plants ranged in height from 2 to 18 cm (1- to 4-leaf stage) for postemergence treatments. Treated plants and controls were maintained in a greenhouse for 13 to 15 days, after which time all species were compared to controls and visually evaluated. Plant response ratings, summarized in Table C, are based on a scale of 0 to 100 where 0 is no effect and 100 is complete control. A dash (-) response means no test result.

foxtail, giant = assay: Test A postemergence; assay type: in vivo, Setaria faberii
Method in brief: as §1

crabgrass, large = assay: Test A preemergence; assay type: in vivo, Digitaria sanguinalis; conditions: preemergence; for Crabgrass, Large plant response rating (0 to 100 scale): 125 g ai/ha, visual injury approx. 10 days after treatment; for Crabgrass, Large plant response rating: 500 g ai/ha, visual injury after approx. 10 days, 0 to 100 scale (0 no effect, 100 complete control)
Method in brief: as §1

barnyardgrass [3] = assay: Test A postemergence; assay type: in vivo, Echinochloa crus-galli
Method in brief: as §1

velvetleaf = assay: Test A preemergence; assay type: in vivo, Abutilon theophrasti; conditions: preemergence; for Velvetleaf plant response rating (0 to 100 scale): 125 g ai/ha, visual injury approx. 10 days after treatment; for Velvetleaf plant response rating: 500 g ai/ha, visual injury after approx. 10 days, 0 to 100 scale (0 no effect, 100 complete control)
Method in brief: as §1

barnyardgrass [4] = assay: Test B flood; assay type: in vivo, Echinochloa crus-galli; conditions: 250 g ai/ha, visual rating on 0 to 100 scale (0 no effect, 100 complete control), 13 to 15 days
Method in brief: as §2

oilseed rape = assay: Test C preemergence; assay type: in vivo, Brassica napus
Method in brief: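 Herbicidal effect is expressed as percent visual control (0–100) judged against untreated plants 13 to 15 days after treatment in the greenhouse. Preemergence pots contained seeds in a soil–sand blend; postemergence plants, 2–18 cm tall, grew in peat-based planting medium.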

[5] = preemergence, 31 g ai/ha, visual rating, scale 0 to 100 (0 no effect, 100 complete control), 13 to 15 days
[6] = preemergence, 62 g ai/ha, scale 0 to 100 (0 no effect, 100 complete control), 13 to 15 days
[7] = preemergence, 125 g ai/ha, 13 to 15 days, scale 0 to 100, 0 = no effect, 100 = complete control
[8] = preemergence, 250 g ai/ha, scale 0 to 100, 0 is no effect, 100 is complete control
[9] = Postemergence, 500 g ai/ha, 0 to 100 scale (0 no effect, 100 complete control)
[10] = postemergence, 125 g ai/ha, about 10 days, visual rating on 0 to 100 scale (0 no effect, 100 complete control)
[11] = Preemergence, 16 g ai/ha, scale 0 to 100

O=C(NC1CC1)c1cc(CCF)n(Cc2ccnc(C(F)(F)F)c2)n1 [Compound 176]
Corn plant response rating (0 to 100 scale) (corn [1]): 10 | Corn plant response rating (corn [1]): 90 | Plant response rating, Rice (rice): 0 | Morningglory plant response rating (0 to 100 scale) (morningglory): 80 | Morningglory plant response rating (morningglory): 100 | Corn plant response rating (corn [2]; [5]): 5 | Corn plant response rating (corn [2]; [6]): 5 | Plant response rating, Corn (corn [2]; [7]): 90 | Corn plant response rating (corn [2]; [8]): 90 | Foxtail, Giant plant response rating (foxtail, giant; [9]): 90 | Foxtail, Giant plant response rating (foxtail, giant; [10]): 80 | Crabgrass, Large plant response rating (0 to 100 scale) (crabgrass, large): 100 | Crabgrass, Large plant response rating (crabgrass, large): 100 | Barnyardgrass plant response rating (barnyardgrass [3]; [9]): 90 | Barnyardgrass plant response rating (barnyardgrass [3]; [10]): 60 | Velvetleaf plant response rating (0 to 100 scale) (velvetleaf): 50 | Velvetleaf plant response rating (velvetleaf): 90 | Plant response rating, Barnyardgrass (barnyardgrass [4]): 35 | Oilseed Rape plant response rating (oilseed rape; [5]): 90 | Oilseed Rape plant response rating (oilseed rape; [6]): 90 | Plant response rating, Oilseed Rape (oilseed rape; [7]): 95 | Oilseed Rape plant response rating (oilseed rape; [8]): 100

CCNC(=O)c1cc(CCF)n(Cc2ccnc(C(F)(F)F)c2)n1 [Compound 178]
Corn plant response rating (0 to 100 scale) (corn [1]): 0 | Corn plant response rating (corn [1]): 50 | Plant response rating, Rice (rice): 0 | Morningglory plant response rating (0 to 100 scale) (morningglory): 80 | Morningglory plant response rating (morningglory): 100 | Plant response rating, Corn (corn [2]; [11]): 5 | Corn plant response rating (corn [2]; [5]): 5 | Corn plant response rating (corn [2]; [6]): 5 | Plant response rating, Corn (corn [2]; [7]): 25 | Foxtail, Giant plant response rating (foxtail, giant; [9]): 90 | Foxtail, Giant plant response rating (foxtail, giant; [10]): 70 | Crabgrass, Large plant response rating (0 to 100 scale) (crabgrass, large): 100 | Crabgrass, Large plant response rating (crabgrass, large): 100 | Barnyardgrass plant response rating (barnyardgrass [3]; [9]): 80 | Barnyardgrass plant response rating (barnyardgrass [3]; [10]): 70 | Velvetleaf plant response rating (0 to 100 scale) (velvetleaf): 30 | Velvetleaf plant response rating (velvetleaf): 90 | Plant response rating, Barnyardgrass (barnyardgrass [4]): 20 | Plant response rating, Oilseed Rape (oilseed rape; [11]): 50 | Oilseed Rape plant response rating (oilseed rape; [5]): 70 | Oilseed Rape plant response rating (oilseed rape; [6]): 80 | Plant response rating, Oilseed Rape (oilseed rape; [7]): 98

CCCc1cc(C(=O)NOC(C)C)nn1Cc1cc(C(F)(F)F)nn1C [Compound 203]
Corn plant response rating (0 to 100 scale) (corn [1]): 20 | Corn plant response rating (corn [1]): 80 | Plant response rating, Rice (rice): 0 | Morningglory plant response rating (0 to 100 scale) (morningglory): 10 | Corn plant response rating (corn [2]; [5]): 5 | Corn plant response rating (corn [2]; [6]): 50 | Plant response rating, Corn (corn [2]; [7]): 75 | Corn plant response rating (corn [2]; [8]): 98 | Foxtail, Giant plant response rating (foxtail, giant; [9]): 90 | Foxtail, Giant plant response rating (foxtail, giant; [10]): 80 | Crabgrass, Large plant response rating (0 to 100 scale) (crabgrass, large): 100 | Crabgrass, Large plant response rating (crabgrass, large): 100 | Barnyardgrass plant response rating (barnyardgrass [3]; [9]): 80 | Barnyardgrass plant response rating (barnyardgrass [3]; [10]): 40 | Velvetleaf plant response rating (0 to 100 scale) (velvetleaf): 30 | Plant response rating, Barnyardgrass (barnyardgrass [4]): 25 | Oilseed Rape plant response rating (oilseed rape; [5]): 50 | Oilseed Rape plant response rating (oilseed rape; [6]): 100 | Plant response rating, Oilseed Rape (oilseed rape; [7]): 100 | Oilseed Rape plant response rating (oilseed rape; [8]): 100

Source: patent US20150105252A1, “SUBSTITUTED PYRAZOLES AS HERBICIDES” (E I DU PONT DE NEMOURS AND COMPANY, priority 2013, published 2015)
